Source: US12358963B2, “Regenerative polypeptides and uses thereof” (Juvena Therapeutics, Inc., priority 2019, dated 2025)

Tests used:
Type in all cases: cell-based
DM1 human myoblast [1] = assay: DM1 human myoblast fusion (% eMyHC area); details: 96h; vehicle 0.45
Protocol: (§1) Bar graph of % EdU+ human myoblast (person) and % area MyHC in response to IGF2. Myoblast were cultured 72h for proliferation and 96h for fusion in the presence of indicated factor. Mean∓S.D. Mean∓SD. Significant p-values (EdU: Vehicle˜IGF2: 6.8E-3, % eMyHC Area: Vehicle˜IGF2: 1.9E-4) (*p<0.05 by Students Two-Tailed T-test, n=3-6).
(§2) IGF2 was tested individually for its ability to promote proliferation and/or fusion of human muscle progenitor cells from an individual with myotonic dystrophy type 1 (hMD)—a muscular dystrophy caused by mutations in the DMPK1 gene. The effect of IGF2 on myogenic activity was assayed in biological triplicate across a range of concentrations centered around expected physiological levels by adding each factor to hMD myoblasts for 72 hours with daily media changes (DMEM +2% horse serum) and a second pulse of factors at the first media change. After 72 or 96 hours, cells were pulsed for 2-5 hours with EdU (30 uM), ethanol fixed, stained with Hoescht 3342, immunostained for proliferation—as measured by the percent of cells staining positive for EdU (% EdU)—, and immunostained for differentiation—as measured by the increase in cellular area staining positive for embryonic myosin heavy chain (% eMyHC) relative to the negative controls, which received media and vehicle only. […]

DM1 human myoblast [2] = assay: DM1 human myoblast proliferation (EdU); details: 72h; vehicle 1.0
Protocol: as §1, §2

DM1 human myoblast [3] = assay: Gene expression fold change in DM1 human myoblast; details: IGF2 200 ng/mL
[4] = system: aged human myoblast cell lines; assay: Myogenic gene RNA expression in aged human myoblasts by real-time qPCR
Protocol: Myogenic gene RNA expression (fold change to FM) in response to vehicle (FM) in mouse myoblast cell lines monitored by real-time qPCR. Myoblast were cultured 48h in fusion media. Mean±SD. n=3. (Y,Z) Differential induction of myogenic gene expression by FGF17 in human myoblast myoblasts. Quantitation table of myogenic gene RNA expression (fold change to FM-fusion media (DMEM+2% horse serum)) in response to FM or rh-FGF17 in aged human myoblast cell lines by real-time qPCR. Myoblast were cultured (B) 48 hours or (C) 72 hours in FM. Mean∓SD. n=3.
RNA was isolated from each well (RNeasy Mini Kit, Qiagen) and cDNA was obtained by reverse-transcription (High Capacity Reverse Transcription Kit, Thermo Fisher Scientific). Real-time quantitative PCR was performed using QuantStudio3 (Thermo Fisher).
Aged human myoblasts were cultured in well plates. […] Cells that had been cultured with IGF2 had increases in levels of MYOG at 48 hours and levels of MYOD at 72 hours.

human myoblast cells = assay: Human myoblast differentiation, % area eMyHC (IGF2, sodium butyrate); details: 96h, vehicle 6.813
Protocol: Fresh media was added every 24 hours. […] The total area of eMyHc positive cells was analyzed, and treated cells were compared to cells treated with the vehicle alone. […] Myoblast were cultured 96h in the presence of BMP7 at indicated dose. Fresh media and BMP7 was added every 24h. Mean∓S.D. (*p<0.05 by One-Way Anova Tukey Honest Significant Difference, n=2-12) […] Fresh media was added every 24 hours. […] FIG. 3A: Bar graph of % Area eMyHC+ age human myoblast (person) in response to indicated treatment compared to Vehicle (vehicle). Myoblast were cultured 96h in the presence of factors at indicated dose. Fresh media and factors were added every 24h. Mean∓S.D. Significant p-values (Vehicle IGF2: 0.03 ug/mL: 1.42E-08, Vehicle NaBut: 1 nM IGF2: 0.03 ug/mL: 1.79E-11, Vehicle NaBut: 10 nM IGF2: 0.03 ug/mL: 1.80E-11, Vehicle NaBut: 100 nM IGF2: 0.03 ug/mL: 1.79E-11). […] Myoblast were cultured 96h in the presence of BMP7 at indicated dose. Mean±S.D. Significant p-values (IGF2 NaBut: 1 nM IGF2: 0.03 ug/mL: 1.88E-3, Vehicle NaBut: 10 nM IGF2: 0.03 ug/mL: 4.80E-3, Vehicle NaBut: 100 nM IGF2: 0.03 ug/mL: 1.87E-3) (*p<0.05 by One-Way ANOVA Tukey Honest Significant Difference, n=2-12)

[5] = 48h, BMP7 50 ng/mL, Butyrate 100 nM, FM 1.000

IGF2: IGF2 polypeptide, IGF1R agonist
% eMyHC are (DM1 human myoblast [1]): 5.49%
EdU FC (DM1 human myoblast [2]): 2.18
ATP1B1 expression fold change compared to FM (vehicle) (DM1 human myoblast [3]; 48h): 3.018
MYF5 expression fold change compared to FM (DM1 human myoblast [3]; [5]): 0.730
MYOD1 expression fold change compared to FM (DM1 human myoblast [3]; [5]): 1.252
MYOG expression fold change compared to FM (DM1 human myoblast [3]; [5]): 2.972
CKM expression fold change compared to vehicle (DM1 human myoblast [3]; 96h): 5.165
MYH3 expression fold change compared to vehicle (DM1 human myoblast [3]; 96h): 14.833
MYOD1 RNA expression (fold change to FM) ([4]; 48 hr, FM 1.001): 0.519
MYOG RNA expression (fold change to FM) ([4]; 48 hr, FM 1.013): 5.756
MYF5 RNA expression (fold change to FM) ([4]; 48 hr, FM 1.04): 0.409
MYF5 RNA expression (fold change to FM) ([4]; 72 hr, FM 1.023): 0.708
MYOD1 RNA expression (fold change to FM) ([4]; 72 hr, FM 1.055): 5.723
MYOG RNA expression (fold change to FM) ([4]; 72 hr, FM 1.092): 0.018
% eMyHC (human myoblast cells; IGF2 0.015 ug/mL): 10.843%
% eMyHC (human myoblast cells; IGF2 0.03 ug/mL, aged human myoblast): 16.620%
